Test results from PMC8400955 (Pharmaceuticals, 2021).

Legend:
[1] = 7-day repeated-dose TK in dogs; assay type: in vivo; details: beagle, dog, plasma, po
Experimental: The TK of ZB716 was investigated following once-daily administration via oral gavage for 7 consecutive days. Beagle dogs (n = 1/sex) were orally administered ZB716 at dose levels of 100 and 200 mg/kg/day.
The TK of ZB716 was investigated following once-daily administration via oral gavage for 7 consecutive days. The Cmax and AUClast values of ZB716 increased with dose in a greater than dose-proportional manner. However, the exposure in the female given 100 mg/kg/day was higher than that in the female given 200 mg/kg/day on days 1 and 7 (Figure 3). During the study, females had higher exposure at 100 mg/kg/day, and males had higher exposure at 200 mg/kg/day.
(§1) Four-to-six-week-old Sprague Dawley rats (Crl: CD (SD)) (SPF/VAF) were purchased from Beijing Vital River Laboratory Animal Technology, Co. Ltd.). Six-month-old beagle dogs were purchased from Beijing Marshall Biotechnology Co. Ltd. Animals were quarantined/acclimated for 2–6 weeks prior to dose initiation. Both Sprague Dawley rats and beagle dogs were given oral administration of ZB716 (20% PG, 5% Solutol, and 75% of 40% HP-β-CD in water) at different dose levels. After treatment with the test articles, whole blood was collected from each study animal by puncture of the tail vein (0.4 mL of whole blood from rats) and/or the peripheral vein (0.6 mL of whole blood from dogs) into tubes containing K2EDTA at each timepoint: pre-dose, and 0.5, 1, 2, 4, 8, and 24 h post-dose. The plasma samples were divided into 2 aliquots (approximately equal in volume) and stored frozen at −75 ± 15 °C within 2 h of the collection until analysis at Pharmaron, China.
(§2) The stock solution of ZB716 (5.0 mg/mL) and ZB716-d6 (1 mg/mL) in ACN:DI Water = 1:1 was prepared and stored at −20 ± 5 °C. The desired serial concentrations of working reference analyte solutions were achieved by diluting a stock analyte solution with 50% acetonitrile (0.1% formic acid) in water solution. The bioanalytical LC–MS/MS method was validated for quantitative determination of ZB716 in Sprague Dawley rat plasma and beagle dog plasma, with acceptable selectivity, sensitivity, calibration curve, precision, and accuracy. This method is applicable for the determination of ZB716 in Sprague Dawley rat plasma and beagle dog plasma, with a lower limit of quantification of 20.0 ng/mL, and an upper limit of quantification of 10,000 ng/mL.
(§3) Five microliters of diluted supernatant was injected into the LC–MS/MS system (Shimadzu LC30AD HPLC system with a SynergiTM 4 μm Fusion-RP 80 Å (50 × 2 mm) column using gradient elution and a Triple Quad 5500 mass spectrometer) for quantitative analysis. The mobile phases used were 0.1% formic acid in deionized water and 0.1% formic acid in acetonitrile. The pharmacokinetic parameters T1/2 (the biological half-life), Cmax (maximal concentration), Tmax (time at which Cmax is observed), and AUC (area under the plasma concentration–time curve) were calculated from the plasma concentration versus time data using WinNonlin (Phoenix^TM, version 8.1, Mountain View, CA, USA). All PK studies were conducted by Pharmaron in Beijing, China.

[2] = 4-week repeat-dose toxicity/TK study in dogs; assay type: in vivo, beagle dogs; details: for AUC(0-t) / Cmax / Tmax: beagle, dog, plasma, po
Experimental: The TK of ZB716 was investigated in a 4-week repeat-dose toxicity study in dogs. Groups of dogs (n = 3/sex/group) were orally administered ZB716 (5% EtOH, 15% PG, 5% Solutol, and 75% of 40% HP-β-CD in DI water) at dose levels of 25, 100, and 200 mg/kg/day for 4 weeks. The plasma concentration of ZB716 was measured at various times up through to 24 h post-dose on days 1 and 28. […] The lower exposure in females given 200 mg/kg/day on day 1 was likely due to emesis noted in all females in this group.
as §1, §2, §3

[3] = Stability in incubation medium only; assay type: in vitro ADME; details: 1 μM
Experimental: Hepatocytes of humans (#X008001), dogs (#M00205), rats (#M00005), and mice (#M005052) were purchased from BioIVT, NY, USA. Monkey hepatocytes were procured from RILD, Shanghai, China. The metabolic stability of ZB716 in human, monkey, dog, rat and mouse hepatocytes was investigated by incubating ZB716 with human, monkey, dog, rat, and mouse hepatocytes (0.5 × 10^6 cells/mL), or with incubation medium only.
parent disappearance vs. incubation time curve.
Scaled-up Clint = kV/N × Scaling Factor
metabolite formed during the reaction.

[4] = female, 100 mg/kg/day, day 1, PO 100 mg/kg/day, F
[5] = female, 100 mg/kg/day, day 7, PO 100 mg/kg/day, F
[6] = female, 200 mg/kg/day, day 1, PO 200 mg/kg/day, F
[7] = female, 200 mg/kg/day, day 7, PO 200 mg/kg/day, F
[8] = male, 100 mg/kg/day, day 1, PO 100 mg/kg/day, M
[9] = male, 100 mg/kg/day, day 7, PO 100 mg/kg/day, M
[10] = male, 200 mg/kg/day, day 1, PO 200 mg/kg/day, M
[11] = male, 200 mg/kg/day, day 7, PO 200 mg/kg/day, M
[12] = female, 25 mg/kg/day, day 1, PO 25 mg/kg/day, F
[13] = female, 25 mg/kg/day, day 28, PO 25 mg/kg/day, F
[14] = female, 100 mg/kg/day, day 28, PO 100 mg/kg/day, F
[15] = female, 200 mg/kg/day, day 28, PO 200 mg/kg/day, F
[16] = male, 25 mg/kg/day, day 1, PO 25 mg/kg/day, M
[17] = male, 25 mg/kg/day, day 28, PO 25 mg/kg/day, M
[18] = male, 100 mg/kg/day, day 28, PO 100 mg/kg/day, M
[19] = male, 200 mg/kg/day, day 28, PO 200 mg/kg/day, M

Compound `C[C@]12CC[C@@H]3c4ccc(B(O)O)cc4C[C@@H](CCCCCCCCC[S+]([O-])CCCC(F)(F)C(F)(F)F)[C@H]3[C@@H]1CC[C@@H]2O` (stereo partly shown) [ZB716, fulvestrant-3-boronic acid] has a Tmax at 7 days ([1]; both sexes, 200 mg/kg/day, 7-day repeat oral administration, 100 and 200 mg/kg/day, mostly) of 0.5 to 2 h, an AUC(0-t) [1, 4] of 55600 ng·h/mL and a Cmax [1, 4] of 7210 ng/mL. It also gave a Tmax [1, 4] of 2 h, an AUC(0-t) [1, 5] of 81100 ng·h/mL and a Cmax [1, 5] of 12300 ng/mL. It also gave a Tmax [1, 5] of 4 h, an AUC(0-t) [1, 6] of 9780 ng·h/mL and a Cmax [1, 6] of 1740 ng/mL. For the same compound, the Tmax [1, 6] was 1 h, the AUC(0-t) [1, 7] was 46700 ng·h/mL and the Cmax [1, 7] was 8420 ng/mL. The Tmax [1, 7] was 2 h, the AUC(0-t) [1, 8] was 5070 ng·h/mL and the Cmax [1, 8] was 1350 ng/mL. For the same compound, the Tmax [1, 8] was 1 h, the AUC(0-t) [1, 9] was 17800 ng·h/mL and the Cmax [1, 9] was 3430 ng/mL. It also gave a Tmax [1, 9] of 1 h, an AUC(0-t) [1, 10] of 52200 ng·h/mL and a Cmax [1, 10] of 8430 ng/mL. The Tmax [1, 10] was 2 h, the AUC(0-t) [1, 11] was 103000 ng·h/mL and the Cmax [1, 11] was 18300 ng/mL. The Tmax [1, 11] was 2 h, the AUC(0-t) [2, 12] was 3880 ng·h/mL and the Cmax [2, 12] was 772 ng/mL. It also gave a Tmax [2, 12] of 1 h, an AUC(0-t) [2, 13] of 8000 ng·h/mL and a Cmax [2, 13] of 1590 ng/mL. The Tmax [2, 13] was 1 h, the AUC(0-t) [2, 4] was 4490 ng·h/mL and the Cmax [2, 4] was 997 ng/mL. The Tmax [2, 4] was 1 h, the AUC(0-t) [2, 14] was 9650 ng·h/mL and the Cmax [2, 14] was 1870 ng/mL. It also gave a Tmax [2, 14] of 2 h, an AUC(0-t) [2, 6] of 2720 ng·h/mL and a Cmax [2, 6] of 583 ng/mL. The Tmax [2, 6] was 2 h, the AUC(0-t) [2, 15] was 14900 ng·h/mL and the Cmax [2, 15] was 1810 ng/mL. For the same compound, the Tmax [2, 15] was 2 h, the AUC(0-t) [2, 16] was 1980 ng·h/mL and the Cmax [2, 16] was 691 ng/mL. It also gave a Tmax [2, 16] of 0.5 h, an AUC(0-t) [2, 17] of 4330 ng·h/mL and a Cmax [2, 17] of 1390 ng/mL. It also gave a Tmax [2, 17] of 1 h, an AUC(0-t) [2, 8] of 4570 ng·h/mL and a Cmax [2, 8] of 1400 ng/mL. For the same compound, the Tmax [2, 8] was 1 h, the AUC(0-t) [2, 18] was 12400 ng·h/mL and the Cmax [2, 18] was 3340 ng/mL. The Tmax [2, 18] was 2 h, the AUC(0-t) [2, 10] was 7880 ng·h/mL and the Cmax [2, 10] was 1040 ng/mL. For the same compound, the Tmax [2, 10] was 2 h, the AUC(0-t) [2, 19] was 11000 ng·h/mL and the Cmax [2, 19] was 2130 ng/mL. The Tmax [2, 19] was 2 h, the tolerability ([2]; oral once daily, doses up to 200 mg/kg/day for 28 consecutive days) was “tolerated” and the “Estimated In Vitro t1/2” value [3] was “∞”. The “Remaining at 120 min” value [3] was 100%.
